Results reported in patent US20230139171A1 (SITA Information Networking Computing UK Limited, priority 2019, published 2023).

How the values were obtained:
Format in all cases: cell-based
human TLR9 = molecular target: T1, human TLR9 (Homo sapiens, UniProt Q9NR96); assay: TLR9 inhibition reporter assay (HEK-Blue cells, SEAP reporter, ODN2006 stimulation); conditions: HEK-Blue cells overexpressing human TLR9, SEAP reporter, ODN2006 5 nM
T1 construct: host or cells: HEK-Blue cells
T1 sequence (Q9NR96 26-1032): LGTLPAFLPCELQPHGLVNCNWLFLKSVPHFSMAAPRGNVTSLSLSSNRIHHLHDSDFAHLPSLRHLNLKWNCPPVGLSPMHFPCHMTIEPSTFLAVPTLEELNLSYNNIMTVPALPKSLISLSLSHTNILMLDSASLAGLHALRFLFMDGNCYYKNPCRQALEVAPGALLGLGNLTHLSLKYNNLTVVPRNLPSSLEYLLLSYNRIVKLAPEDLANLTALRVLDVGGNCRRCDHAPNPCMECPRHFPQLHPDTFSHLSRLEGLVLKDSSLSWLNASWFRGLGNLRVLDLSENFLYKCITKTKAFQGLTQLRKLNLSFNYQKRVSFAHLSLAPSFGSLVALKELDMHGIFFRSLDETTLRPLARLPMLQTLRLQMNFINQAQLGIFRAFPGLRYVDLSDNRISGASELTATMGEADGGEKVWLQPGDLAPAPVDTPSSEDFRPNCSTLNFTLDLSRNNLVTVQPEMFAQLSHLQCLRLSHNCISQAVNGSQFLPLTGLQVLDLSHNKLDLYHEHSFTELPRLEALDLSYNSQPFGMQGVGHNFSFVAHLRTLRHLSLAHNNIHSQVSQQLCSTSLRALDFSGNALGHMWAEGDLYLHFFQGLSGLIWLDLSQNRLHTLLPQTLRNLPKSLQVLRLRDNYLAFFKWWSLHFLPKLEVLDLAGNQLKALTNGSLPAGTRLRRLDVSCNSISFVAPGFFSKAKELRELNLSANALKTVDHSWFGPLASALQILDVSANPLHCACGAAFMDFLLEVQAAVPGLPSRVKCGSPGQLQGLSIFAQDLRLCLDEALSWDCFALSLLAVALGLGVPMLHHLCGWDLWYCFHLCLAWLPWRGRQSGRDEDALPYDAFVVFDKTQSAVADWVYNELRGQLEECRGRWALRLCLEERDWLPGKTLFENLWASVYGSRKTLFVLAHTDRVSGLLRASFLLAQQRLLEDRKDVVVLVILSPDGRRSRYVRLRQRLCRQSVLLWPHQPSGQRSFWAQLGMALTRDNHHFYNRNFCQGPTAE
Outline: (§1)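 Agonists used: gardiquimod 7.5 μM (TLR7), R848 15.9 μM (TLR8), ODN2006 5 nM (TLR9), added after 30 min room-temperature compound pre-treatment (0.05 nM–50 μM) of receptor-overexpressing HEK-Blue cells. SEAP reporter (NF-κB/AP-1 driven) read after 22 h at 37 °C; inhibition scaled between agonist+DMSO and reference-inhibitor wells.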

human TLR8 = molecular target: T2, human TLR8 (Homo sapiens, UniProt Q9NR97); assay: TLR8 inhibition reporter assay (HEK-Blue cells, SEAP reporter, R848 stimulation); conditions: HEK-Blue cells overexpressing human TLR8, SEAP reporter, R848 15.9 μM; read-out: TLR8 IC50
T2 construct: host or cells: HEK-Blue cells
T2 sequence (Q9NR97 27-1041): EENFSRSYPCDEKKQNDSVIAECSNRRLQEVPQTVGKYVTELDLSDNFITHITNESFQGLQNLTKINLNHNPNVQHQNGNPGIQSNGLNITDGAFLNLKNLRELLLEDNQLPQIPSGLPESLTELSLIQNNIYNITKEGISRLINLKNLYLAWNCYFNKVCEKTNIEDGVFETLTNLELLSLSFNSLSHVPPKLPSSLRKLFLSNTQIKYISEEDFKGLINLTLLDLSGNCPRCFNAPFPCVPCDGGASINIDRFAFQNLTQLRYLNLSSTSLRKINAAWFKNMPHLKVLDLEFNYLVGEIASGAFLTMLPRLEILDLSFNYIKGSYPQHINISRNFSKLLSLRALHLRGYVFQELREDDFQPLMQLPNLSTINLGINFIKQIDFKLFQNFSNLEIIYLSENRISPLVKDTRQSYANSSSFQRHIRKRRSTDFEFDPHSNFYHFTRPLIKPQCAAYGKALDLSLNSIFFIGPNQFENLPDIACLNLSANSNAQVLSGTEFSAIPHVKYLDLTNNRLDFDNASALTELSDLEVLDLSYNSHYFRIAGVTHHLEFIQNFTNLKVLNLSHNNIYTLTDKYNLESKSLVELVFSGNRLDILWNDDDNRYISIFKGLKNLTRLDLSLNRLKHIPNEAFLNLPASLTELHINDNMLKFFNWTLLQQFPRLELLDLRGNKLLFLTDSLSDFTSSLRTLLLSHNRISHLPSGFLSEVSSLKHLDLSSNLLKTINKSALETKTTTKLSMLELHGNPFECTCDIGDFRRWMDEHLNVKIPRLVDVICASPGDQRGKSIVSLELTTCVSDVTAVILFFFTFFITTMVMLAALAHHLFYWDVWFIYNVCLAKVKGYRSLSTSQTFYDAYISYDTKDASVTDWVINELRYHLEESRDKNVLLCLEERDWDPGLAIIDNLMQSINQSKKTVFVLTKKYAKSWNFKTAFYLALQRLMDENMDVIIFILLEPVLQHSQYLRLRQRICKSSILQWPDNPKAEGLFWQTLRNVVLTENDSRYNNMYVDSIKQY
Outline: as §1

human TLR7 = molecular target: T3, human TLR7 (Homo sapiens, UniProt Q9NYK1); assay: TLR7 inhibition reporter assay (HEK-Blue cells, SEAP reporter, gardiquimod stimulation); conditions: HEK-Blue cells overexpressing human TLR7, SEAP reporter, gardiquimod 7.5 μM; read-out: TLR7 IC50
T3 construct: host or cells: HEK-Blue cells
T3 sequence (Q9NYK1 27-1049): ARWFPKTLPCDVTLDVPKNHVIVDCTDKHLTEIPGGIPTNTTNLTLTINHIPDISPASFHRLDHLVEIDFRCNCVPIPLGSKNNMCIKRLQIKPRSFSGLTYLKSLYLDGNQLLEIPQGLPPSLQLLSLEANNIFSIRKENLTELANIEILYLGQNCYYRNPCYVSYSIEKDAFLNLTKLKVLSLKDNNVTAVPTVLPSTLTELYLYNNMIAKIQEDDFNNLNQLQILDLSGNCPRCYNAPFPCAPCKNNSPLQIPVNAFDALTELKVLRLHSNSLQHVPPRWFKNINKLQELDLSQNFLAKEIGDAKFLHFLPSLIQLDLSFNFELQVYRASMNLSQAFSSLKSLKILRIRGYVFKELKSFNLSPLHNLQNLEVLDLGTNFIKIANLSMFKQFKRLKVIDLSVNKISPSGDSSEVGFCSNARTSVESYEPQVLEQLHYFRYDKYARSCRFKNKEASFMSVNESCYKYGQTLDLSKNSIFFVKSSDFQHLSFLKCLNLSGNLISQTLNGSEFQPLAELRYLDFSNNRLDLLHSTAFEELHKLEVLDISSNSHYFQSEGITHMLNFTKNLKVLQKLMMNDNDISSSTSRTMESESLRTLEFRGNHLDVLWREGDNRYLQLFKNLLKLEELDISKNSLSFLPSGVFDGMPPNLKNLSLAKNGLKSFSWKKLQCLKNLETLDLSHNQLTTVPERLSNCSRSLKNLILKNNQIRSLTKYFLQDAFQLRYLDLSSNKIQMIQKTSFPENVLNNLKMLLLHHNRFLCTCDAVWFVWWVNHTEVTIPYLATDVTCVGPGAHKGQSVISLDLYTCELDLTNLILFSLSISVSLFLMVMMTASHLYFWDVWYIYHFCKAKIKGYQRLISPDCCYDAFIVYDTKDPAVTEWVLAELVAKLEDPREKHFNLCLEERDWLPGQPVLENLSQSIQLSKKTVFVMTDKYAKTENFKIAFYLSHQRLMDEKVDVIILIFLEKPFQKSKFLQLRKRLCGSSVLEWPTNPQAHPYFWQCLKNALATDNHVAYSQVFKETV
Outline: as §1

| Structure (SMILES) | IC50 (human TLR9) | IC50 (human TLR8) | IC50 (human TLR7) |
| --- | --- | --- | --- |
| Cc1c(-c2[nH]c3sc(CN4CC5(CNC5)C4)nc3c2C(C)C)cn2ncnc2c1C [Example 409, 2-((2,6-diazaspiro[3.3]heptan-2-yl)methyl)-5-(7,8-dimethyl-[1,2,4]triazolo[1,5-a]pyridin-6-yl)-6-isopropyl-4H-pyrrolo[3,2-d]thiazole] | 9800 nM | 345 nM | 48.2 nM |
| Cc1cc(-c2[nH]c3nc(C4CCNCC4)sc3c2C(C)C)cn2ncnc12 [Example 411, 6-isopropyl-5-(8-methyl-[1,2,4]triazolo[1,5-a]pyridin-6-yl)-2-(piperidin-4-yl)-4H-pyrrolo[2,3-d]thiazole] | 3100 nM | 200 nM | 1.8 nM |
| Cc1cc(-c2[nH]c3nc(C4CCN(CC5(C)COC5)CC4)sc3c2C(C)C)cn2ncnc12 [Example 412, 6-isopropyl-5-(8-methyl-[1,2,4]triazolo[1,5-a]pyridin-6-yl)-2-(1-((3-methyloxetan-3-yl)methyl)piperidin-4-yl)-4H-pyrrolo[2,3-d]thiazole] | 5000 nM | 520 nM | 50 nM |
| COc1cc(-c2[nH]c3cc(C4CCNCC4)sc3c2C(C)C)cn2ncnc12 [Example 413, 6-isopropyl-5-(8-methoxy-[1,2,4]triazolo[1,5-a]pyridin-6-yl)-2-(piperidin-4-yl)-4H-thieno[3,2-b]pyrrole] | 3100 nM | 9.3 nM | 5.3 nM |

The remaining molecules from weak to strong by IC50 (human TLR9), led by results:

| IC50 (human TLR9) | IC50 (human TLR8) | IC50 (human TLR7) | Structure (SMILES) |
| --- | --- | --- | --- |
| 37700 nM | 215 nM | 77.5 nM | Cc1c(-c2[nH]c3sc(CNCC4(S(C)(=O)=O)CC4)nc3c2C(C)C)cn2ncnc2c1C [Example 405, 1-(5-(7,8-dimethyl-[1,2,4]triazolo[1,5-a]pyridin-6-yl)-6-isopropyl-4H-pyrrolo[3,2-d]thiazol-2-yl)-N-((1-(methylsulfonyl)cyclopropyl)methyl)methanamine] |
| 6800 nM | 560 nM | 130 nM | COc1cc(-c2[nH]c3nc(C4CCNCC4)sc3c2C(C)C)cn2ncnc12 [Example 410, 6-isopropyl-5-(8-methoxy-[1,2, 4]triazolo[1,5-a]pyridin-6-yl)-2-(piperidin-4-yl)-4H-pyrrolo[2,3-d]thiazole] |
